In patent US20170143748A1, “ANTI-TUMOR PHARMACEUTICAL APPLICATION OF PENTACYCLIC TRITERPENE SAPONIN COMPOUNDS OF SZECHUAN MELANDIUM ROOT” (priority 2014, published 2017):

Columns and labels:
Assay type in all cases: cell-based, Human
HepG2 [1] = assay: MTT inhibition of tumor cells in vitro (Example 3); settings: 40 μg/mL, 48 hours
HepG2 [2] = assay: Inhibitory activity and IC50 to HepG2 at different time of treatment (MTT, Example 4); settings: HepG2, 40 μg/ml
Protocol: Human resources hepatoma cell line HepG2 was provided by Cancer Hospital, Chinese Academy of Medical Sciences. […] Cells were passaged every 2 or 3 days, and all the experiments were carried out on exponentially growing cells.
Cells were harvested in good growth status and cell suspension was prepared with 2×10^4 cells/mL, added 100 μL per well of 96-well plates, and cultured for 24 h in the incubator. 100 μL liquid medium with no cell was added per well as blank group.
3 plates were used as parallel test to culture cells at different period.
Before medication, supernatant of each well was removed and fresh 1640 medium was added, 180 μL per well. […] Wells of blank and model groups were added with 0.5% DMSO, 20 μL per well. After finished adding drugs, cells were incubated for 24 and 48 h respectively. At the end of incubation, 20 μL MTT was added per well […]. The supernatant was removed carefully and 150 μL DMSO was added per well. After shaken for 10 mins, the absorbance was read at 490 nm and the inhibition rate was calculated with the formula below.
(§1) Inhibition rate=[(ODmodel−ODblank)−(ODdrugs−ODblank)]/(ODmodel−ODblank)×100%
IC50 was calculated with Bliss method.
(§2) The MTT experiment was repeated three times.

BGC823 = assay: MTT inhibition of tumor cells in vitro (Example 3); settings: 40 μg/mL, 48 hours
Protocol: (§3) Human resources tumor cell line […], […], HT29, MCF-7 and A875 were provided by Cancer Hospital, Chinese Academy of Medical Sciences.
(§4) Cells were passaged every 2 or 3 days, and all the experiments were carried out on exponentially growing cells.
(§5) All cells were cultured in a humidified atmosphere (5% CO2 and […]), and passaged every 2 or 3 days. Cells were harvested on exponentially growing phase, and cell suspension was prepared with 2×10^4 cells/mL, added with 100 μL per well of 96-well plates, and cultured for 24 h in incubator. 100 μL medium without cells was added per well as blank group.
(§6) Compound (1), (2), (3), (4), (7) or (8) was dissolved in DMSO respectively, and diluted with 1640 medium at a final concentration of 400 μg/mL, so as to that of the Cisplatin. Cells were divided into 9 groups, they were blank group, model group, Compound (1), (2), (3), (4), (7) and (8) groups, and Cisplatin group as the positive one, 6 wells per group.
(§7) Before drug administration, supernatant of each well was removed and fresh 1640 medium was added, 180 μL per well. Compounds and Cisplatin were added with 20 μL per well respectively at a final concentration of 40 μg/mL. Wells of blank and model groups were added with 0.5% DMSO, 20 μL per well. 48 hours later, 20 μL MTT was added per well and continued to culture for 4 hours, then the supernatant was replaced carefully and DMSO was added with 150 μL per well to end the experiment. The 96-well plates were shaken for 10 mins and read the absorbance at 490 nm. The Inhibition rate was calculated.
as §1, §2

HT29 = assay: MTT inhibition of tumor cells in vitro (Example 3); settings: 40 μg/mL, 48 hours
Protocol: as §3, §4, §5, §6, §7, §1, §2

A875 = assay: MTT inhibition of tumor cells in vitro (Example 3); settings: 40 μg/mL, 48 hours
Protocol: as §3, §4, §5, §6, §7, §1, §2

MCF-7 = assay: MTT inhibition of tumor cells in vitro (Example 3); settings: 40 μg/mL, 48 hours
Protocol: as §3, §4, §5, §6, §7, §1, §2

Molecule	Inhibition rate, HepG2 (HepG2 [1]) [%]	Inhibition rate (HepG2 [2]; 24 h) [%]	Inhibition rate (HepG2 [2]; 48 h) [%]	Inhibition rate, BGC823 (BGC823) [%]	Inhibition rate, HT29 (HT29) [%]	Inhibition rate, A875 (A875) [%]	Inhibition rate, MCF-7 (MCF-7) [%]
N.N.[Cl][Pt][Cl] [Cisplatin, reference compound]	82.15 ± 4.05	47.94 ± 6.328	99.45 ± 0.36	97.86 ± 4.12	99.04 ± 1.15	90.13 ± 1.98	97.53 ± 2.05
CCCCOC(=O)C1OC(O[C@H]2CC[C@]3(C)[C@H]4CC=C5[C@@H]6CC(C)(C)CC[C@]6(C(=O)OC6OC(C)C(OC(=O)/C=C\c7ccc(OC)cc7)C(OC(C)=O)C6OC6OC(C)C(O)C(O)C6O)[C@H](O)C[C@@]5(C)[C@]4(C)CC[C@H]3[C@]2(C)C=O)C(OC2OC(CO)C(O)C(O)C2O)C(OC2OCC(O)C(O)C2O)C1O (some centres unmarked) [Compound (8), sinocrassuloside XIII]	41.25 ± 1.27	–	–	56.00 ± 7.90	77.22 ± 6.17	55.32 ± 13.35	61.32 ± 11.67
sinocrassuloside XII [Compound (7)]	21.83 ± 1.53	–	–	77.08 ± 5.73	62.67 ± 3.12	55.64 ± 9.88	58.12 ± 6.26
